These results are taken from patent US9475789B2, “Use of polyenylpyrrole derivatives for treating inflammation” (WELLHEAD BIOLOGICAL TECHNOLOGY CORP., priority 2014, dated 2016).

The structures appear in SMILES notation. Entries after “also recorded” stand apart in the source; their conditions may differ.

The test system of one assay is RAW 264.7 cells. Put plainly: AlamarBlue assay for cell viability. Particulars: Mus musculus, RAW264.7, cytotoxicity against RAW 264.7 cells, 24 h treatment. The class given is cell-based, murine. The procedure:
RAW 264.7 cells were seeded at a density of 5000 cells in 100 μl RPMI 1640 medium with 10% heat-inactivated FBS per well in 96-well flat-bottom plates and incubated for 24 h at 37° C. in a 5% CO2 incubator. Cells were incubated with tested samples for 24 h and the AlamarBlue® assay was used to determine the cytotoxicity of the test samples. The procedure was conducted following the protocol described in the manufacture's instruction (AbD Serotec Ltd).
The aim of this study is to identify non-toxic polyenylpyrrole derivatives which can be used as anti-inflammatory agents. Compounds 1a-n were evaluated for their cytotoxicities against the murine macrophages cell line RAW 264.7 after 24 h treatment.
(Resazurin is reduced to fluorescent resorufin, in cell work by metabolically active cells.)

The subject of the next assay is iNOS. Put plainly: Western blot of iNOS protein in LPS-activated RAW 264.7 macrophages. It counts as cell-based, murine. Conditions: LPS-activated RAW 264.7, compared with vehicle. The procedure:
In (A) and (C), cells (5×10^5/ml) were incubated with polyenylpyrrole derivatives or DMSO (vehicle) for 30 min followed by stimulating with LPS (1 μg/ml) for 24 h, then NO (A), IL-6 and TNF-α (C) concentration in culture medium were assayed by Griess reaction and ELISA, respectively. In (B), cells (5×10^5/ml) were pretreated with polyenylpyrrole derivatives or DMSO for 30 min followed by stimulating with LPS (1 μg/ml) for 24 h, then the protein expression of iNOS and COX-2 were assayed by Western blot.
(§1) Whole cell lysates were separated by SDS-PAGE and electrotransferred to a PVDF membrane. The membranes were incubated in blocking solution—5% nonfat milk in phosphate buffered saline with 0.1% Tween 20—at room temperature for 1 h. Each membrane was incubated with a specific primary antibody at room temperature for 2 h. After washing three times in PBS with 0.1% Tween 20, the membrane was incubated with an HRP-conjugated secondary antibody directed against the primary antibody. The membrane was developed by an enhanced chemiluminescence Western blot detection system.

Assay [1] deals with NLRP3 inflammasome-mediated IL-1β secretion. Put plainly: IL-1β ELISA, LPS+ATP-activated J774A.1 macrophages (NLRP3 inflammasome). It counts as cell-based, mouse. The procedure: (§2) (A) J774A.1 macrophages (1×10^6/ml) and (B) peritoneal macrophages (1×10^5/ml) were incubated with compound 1h for 30 min followed by LPS (1 μg/ml) stimulating for 5.5 h, then the cells were stimulated with ATP (5 mM) for an additional 30 min. The IL-1β in the culture medium was measured by ELISA and the expression of active caspase-1 (p10) was measured by Western blot. In (C) and (D), J774A.1 macrophages (1×10^6/ml) were incubated with LPS (1 μg/ml) for 5.5 h, then cells were incubated with compound 1h for 30 min followed by stimulating with ATP (5 mM) for an additional 30 min. The IL-1β and IL-6 in the culture medium were measured by ELISA and the expression of active caspase-1 (p10) was measured by Western blot. In (E), J774A.1 macrophages (1×10^6/ml) were incubated with compound 1h for 30 min followed by LPS (1 μg/ml) stimulating for 6 h. The expression of NLRP3 and proIL-1β were measured by Western blot.
(§3) The effects of tested samples on IL-1β, TNF-α and IL-6 production were measured by ELISA according to the manufacturer's instruction. […] Following the addition of 100 μl of stop solution to each well to stop the reaction, the absorbance of the plate was measured by a microplate reader at 450 nm wavelength.
On the technique in general: An ELISA detects its analyte on a solid surface through an enzyme-linked reagent.

The next assay relates to caspase-1. Put plainly: Western blot of active caspase-1 (p10), LPS+ATP-activated J774A.1 macrophages. It counts as cell-based, mouse. The procedure: as §2
(§4) Whole cell lysates were separated by SDS-PAGE and electrotransferred to a PVDF membrane. The membranes were incubated in blocking solution—5% nonfat milk in phosphate buffered saline with 0.1% Tween 20—at room temperature for 1 h. Each membrane was incubated with a specific primary antibody at room temperature for 2 h. After washing three times in PBS with 0.1% Tween 20, the membrane was incubated with an HRP-conjugated secondary antibody directed against the primary antibody. […]
A general note: In western blotting, separated proteins are transferred to a membrane and probed.

The test system of another assay is IL-1β. Put plainly: IL-1β ELISA, LPS+ATP-activated peritoneal macrophages. It counts as cell-based, C57BL/6 mice. Conditions: primary peritoneal macrophages; compound before LPS and ATP. Here is the method:
as §2, §3

A further assay has as its system proIL-1β. Put plainly: Western blot of proIL-1β, LPS-activated J774A.1 macrophages. It counts as cell-based, mouse. Particulars: compound 30 min, then LPS 6 h. Here is the method:
as §2, §4

In the next assay the test system is ROS. Put plainly: Intracellular ROS production, LPS-activated RAW 264.7 macrophages. Particulars: compound 1h 20 μM, NAC 10 mM, 30 min before LPS. It counts as cell-based, murine. Here is the method:
(§5) In (A), RAW 264.7 macrophages (5×10^5/ml) were incubated with compound 1h (20 μM), N-acetyl cysteine (NAC; 10 mM) or DMSO (vehicle) for 30 min followed by LPS (1 μg/ml) stimulating for the indicated time, then ROS levels were measured by detection of the fluorescence intensity of the fluorophore carboxyl-DCF and expressed relative to those at time zero. In (B), RAW 264.7 macrophages (5×10^5/ml) were incubated with compound 1h (20 μM) or DMSO for 30 min followed by LPS (1 μg/ml) stimulating for 0-60 min, then the phosphorylation levels of ERK1/2, JNK1/2, p38 were analyzed by Western blot. In (C), J774A.1 macrophages (5×10^5/ml) were incubated with compound 1h or DMSO for 30 min followed by LPS (1 μg/ml) stimulating for 20 min, then the phosphorylation levels of ERK1/2, JNK1/2, p38 were analyzed by Western blot.
Intracellular ROS stimulated by LPS was measured by detecting the fluorescence intensity of the 2′,7′-dichlorofluorescein diacetate (H2DCFDA) oxidized product (DCF) (Molecular Probes, Eugene, Oreg.). […] The relative fluorescence intensity of fluorophore DCF, formed by peroxide oxidation of the non-fluorescent precursor, was detected at an excitation wavelength of 485 nm and an emission wavelength of 530 nm with a microplate absorbance reader (Bio-Rad Laboratories, Inc).

The next assay concerns ERK1/2, JNK1/2, p38. Put plainly: Western blot of MAPK phosphorylation, LPS-activated J774A.1 macrophages. The class given is cell-based, murine. Particulars: LPS-activated J774A.1, LPS 20 min. Here is the method:
as §5, §1

[2] abbreviates: J774A.1, compound before LPS and ATP treatment.
[3] abbreviates: LPS-primed J774A.1, compound 30 min before ATP stimulation.

Take `O=c1cc(O)cc(/C=C/C=C/C=C/C=C/c2[nH]ccc2Cl)o1` [Compound 1h]: the IC50 (usually the concentration that inhibits the measured activity by half) with RAW 264.7 cells is over 100 µM. Also, the “expression of iNOS protein” value in the assay on iNOS is given as “decreased production; also recorded: reduced the expression of iNOS protein”. The IL-1β secretion result in assay [1] (setting [2]) is on record as “significantly inhibited”; in assay [1] (setting [3]), “inhibited IL-1β secretion”. Moreover, the values for the caspase-1 activation entry in the assay with caspase-1 (setting [2]) and with caspase-1 (setting [3]) were “significantly inhibited” and “not caspase-1 activation”, respectively. Further, in the assay on IL-1β, the IL-1β inhibition activity result is given as “confirmed”. Also, in the assay with proIL-1β, the “LPS-induced proIL-1β expression” value was “inhibited LPS-induced proIL-1β expression in a dose-dependent fashion”. The “LPS-stimulated ROS production” value in the assay with ROS is “able to reduce LPS-stimulated ROS production”. In addition, the “phosphorylation levels of ERK1/2, JNK1/2, p38” value with ERK1/2, JNK1/2, p38 is “confirmed”.
